Measured values reported in patent US20100278837A1, “Compositions And Methods For Reducing Cancer And Inflammation” (The Regents of the University of California, priority 2009, published 2010).
Read-outs that look alike come from different tables or passages of the source.

Columns and labels:
[1] = test system: CD11b+ myeloid cell adhesion to VCAM-1; assay: Chemoattractant-stimulated CD11b+ myeloid cell adhesion to VCAM-1 / endothelial cells (Example 9 adhesion assay); format: cell-based, mouse; settings: Mus musculus, Endothelial cell, read-out: IC50, CD11b+ cell adhesion to VCAM-1
Description: 1×10^5 calcein-AM labelled human CD11b+ cells isolated from buffy coats from the San Diego Blood Bank or murine CD11b+ cells isolated from naïve (non-tumour bearing) or tumour-bearing mice were incubated on HUVEC monolayers or on plastic plates coated with 5 μg/ml recombinant soluble VCAM-1 or ICAM-1 (R&D Systems) for 30 minutes at 37° C. with humidity in the presence of LLC Tumour Conditioned Medium (TCM) or DMEM containing 200 ng/ml SDF1α, IL1β, IL6, TNFα or VEGF-A (R&D Systems). (SDF-1α and IL-1β were initially titrated to determine the minimum dose required to achieve near maximal stimulation of adhesion). TCM was prepared by incubating LLC cells in serum-free media for 18 h and filtering through 0.22 μm filters. After washing three times with warmed medium, adherent cells were quantified using a plate fluorimeter (GeniosPro, TECAN).
In some adhesion assays, cells were also incubated in 25 μg/ml function-blocking anti-integrin α4β1 (rat anti-murine, PS2 or mouse anti-human, HP2/1, gifts from Biogen-Idec), rat-anti-αM (anti-CD11b, M1/70) and isotype control antibodies (rat IgG2κ or mouse IgG1) or with 0.1 nM-10 μM doses of the small molecule inhibitor of integrin α4, ELN476063 (IC50=10 nM), a gift from Elan^14.
Additionally, labelled cells were incubated with HUVEC and rsVCAM coated plates in the presence of […] or SDF-1α and 1-10 μM inhibitors: pan-PI3 kinase inhibitors ([…], wortmannin), PI3-kinase α inhibitors (PI3K75, PIK2alpha, PI103), PI3-kinase β inhibitor (TGX221), PI3-kinase γ inhibitors (TG100-115, AS605240, AS604850), inert control, PLC inhibitor (U73122), geranylgeranyltransferase (Rap1-selective) inhibitors (GGTI-2147 and GGTI-298) or farnesyltransferase (Ras-selective) inhibitor (FTI-277), Akt inhibitors (Inhibitor X and peptide 18), mTOR inhibitor (rapamycin), ROCK inhibitor (Y27632), MEK inhibitor (PD98059), p38 inhibitor (SB202190), tyrosine kinase inhibitor (genestein) and PKA inhibitors (H89, KT5720). LY294002, wortmannin, genestein, U73122, GGTI-2147, GGTI-298, FTI-277, Y27632, PD98059, SB202190, H89 and KT5720 were from Calbiochem. PIK2alpha, PI103, AS605240, AS604850 and TGX221 were from Echelon. TG100-115 was prepared as described^25-26. To titrate the effect of various signalling protein inhibitors on myeloid cell adhesion stimulated by IL-1β or SDF-1α, cells were incubated in 1 nm to 100 μM PI3-kinase inhibitors TG00020 (a pan-PI3-kinase inhibitor), PI3-kinase α inhibitor (PI3Kalpha2) PI3-kinase β inhibitor (TGX221), PI3-kinase γ inhibitors (TG100-115, AS605240), an inert chemically matched control, farnesyltrasnferase inhibitors and geranylgeranyltransferase inhibitors. IC50s for GGTI and FTI were 1 μM. […] Adherent GFP+ cells were automatically quantified using MetaMorph software (Molecular Devices Software).

[2] = Pharmacokinetic analysis of TG100-115 in serum; format: in vivo, Balb/c mice; settings: mouse
Description: (§1) Pharmacokinetic analysis of a 5 mg/kg bolus dose TG100-115 in Balb-c mice was accomplish by evaluating TG100-115 levels in serum at 5, 15, 30, 60 minute intervals as was previously performed for rats^25. In vivo activity assay of a 5 mg/kg bolus dose TG100-115 in Balb-c mice was accomplish by evaluating pAkt/Akt levels in peripheral blood cells in response to SDF-1α stimulation at 0.25, 0.5, 1, 2, 4, 6 and 12 hour intervals

PI3kinase = assay: In vivo PI3kinase activity assay (pAkt/Akt in peripheral blood mononuclear cells after i.v. dosing); parameters: species or system mice
Description: as §1
CD11b+ cells from C57BL/6 mice or PI3-kinase γ−/− mice were freshly isolated under serum free-conditions and were incubated for 30 min in serum-free media in the presence or absence of 1 μM TG100-115. CD11b+ cells were then stimulated with 200 ng/ml IL-1β or SDF-1α (R&D Systems) for 1-3 minutes and cells were solubilized with RIPA buffer. Alternatively, mice were injected intravenously with […] TG100-115 or a chemically similar inert control. Mononuclear peripheral blood leukocytes were isolated from 2 mice each at 0.5, 1, 2, 4, 6 and 12 hours after treatment. Cells were treated for 3 minutes with 200 ng/ml SDF and then solubilized with RIPA buffer. Lysates were electrophoresed and Western blotted. Akt phosphorylation was evaluated by immunoblotting with anti-phosphorylated Thr308-Akt specific antibody (C31 E5E, Cell Signalling). Blots were stripped and reprobed with anti-Akt (#9272, Cell Signaling). Films were scanned and quantified by densitometry.

PyMT breast tumours = assay: Spontaneous PyMT breast tumour progression in treated mice; format: in vivo, FVB PyMT+ female mice
Description: Alternatively, 6 week old PyMT+ female mice (with spontaneous breast tumours), were treated by subcutaneous injection with ELN476063 (3 mg/kg body weight), or saline every third day for three weeks (n=10). Tumours were excised, weighed and analyzed from 6 weeks at 9 weeks of age.
PI3-kinase γ inhibitor studies: C57BL/6 mice were subcutaneously implanted on d1 with 5×10^5 LLC or by intradermal injection with 5×10^5 B16 melanoma cells. Mice were treated by i.p. injection with 2.5 mg/kg of PI3-kinase γ inhibitor (TG100-115) or with a chemically similar inert control (n=10) twice daily for fourteen days for a total daily dose of 5 mg/kg. In additional studies, C57BL/6 mice were subcutaneously implanted on d1 with 5×10^5 LLC and were treated by i.p. injection with 2.5 mg/kg, 0.25 mg/kg, or 0.025 mg/kg of PI3-kinase γ inhibitor (TG100-115), with 2.5 mg/kg of AS605240 or with a chemically similar inert control (n=10) twice daily for twenty-one days for a total daily dose of 5 mg/kg. Tumour volumes, weights and blood vessel densities, as well as myeloid cell densities were measured. Alternatively, 6 week old PyMT+ female mice (with spontaneous breast tumours), were treated by i.p. injection with 2.5 mg/kg PI3-kinase γ inhibitor (TG100-115) or inert control twice daily for three weeks (n=10). Tumours were excised, weighed and analyzed after 3 weeks. Alternatively, 6 week old FVB PyMT+ female mice were implanted with an Alzet osmotic pump with a 0.25 μl/h release rate containing 4.6 mg in 200 μl of TG100-115 or chemically similar, inert control (n=10). Mice were sacrificed at 9 weeks of age and tumours were analyzed.
Inguinal mammary glands were fixed in Carnoy's fixative, dehydrated through a graded series of ethanol solutions and defatted in xylene. Following rehydration, the mammary epithelium was stained with carmine stain (Sigma Chemical, St Louis, Mo.) for 30 min. After removing excess stain by washing in water, samples were dehydrated and stored in methyl salicylate (Sigma Chemical, St Louis, Mo.).^31

IC50 ([1]; IL-1β stimulated): 281 nM
IC50 ([1]; SDF-1α stimulated): 158 nM
half-life ([2]; Balb/c, intravenous, 5 mg/kg, read-out: t1/2 in vivo (converted)): 13.2 min
concentration at 1 h ([2]; iv, single i.v. dose of 5 mg/kg, Balb/c mice): 7.1 ng/mL
half-life ([2]; iv, single i.v. dose of 5 mg/kg, Balb/c mice, read-out: half-life in mice in vivo (converted)): 13.2 min
Structure (SMILES): Nc1nc(N)c2nc(-c3cccc(O)c3)c(-c3cccc(O)c3)nc2n1 [TG100-115, 3,3′-(2,4-diaminopteridine-6,7-diyl)diphenol]
time after dosing for which PI3kinase activity is inhibited (PI3kinase; 5 mg/kg i.v., PBMC stimulated 3 min with SDF-1α): up to 12 hours
myeloid cell PI3kinase catalytic activity in vivo (PI3kinase; mouse, in vivo): rapidly and sustainably inhibits myeloid cell PI3kinase catalytic activity in vivo
carcinoma area in mammary gland whole mounts (PyMT breast tumours): 6+/−1.3%
hyperplasia area in mammary gland whole mounts (PyMT breast tumours): 27+/−5%
normal tissue area in mammary gland whole mounts (PyMT breast tumours): 67+/−3%
